Measured values taken from patent US12691112B2, “FGFR tyrosine kinase inhibitors for the treatment of urothelial carcinoma” (Janssen Pharmaceutica NV, priority 2019, dated 2026).
Where two headings read alike, the source gives them in different places.

System: metastatic or surgically unresectable urothelial cancer harboring select FGFR genetic alterations
Settings: chemo relapsed/refractory
Excerpt: The study comprises a Screening Phase (molecular screening at any time prior to first dose and study screening within 30 days of first dose), a treatment phase, and a post-treatment follow-up phase. The treatment phase comprises the period from first dose until the end-of-treatment visit. The follow-up phase extends until the subject has died, withdraws consent, is lost to follow-up, or the end of study, whichever comes first.
Included patients were adults with measurable urothelial cancer per Response Evaluation Criteria in Solid Tumors version 1.1.
Patients were required to have at least 1 FGFR2/FGFR3 mutation or fusion per central lab testing of RNA from formalin-fixed, paraffin-embedded tumor samples, using a custom reverse transcriptase polymerase chain reaction assay.
Patients were contacted every 12 weeks for survival assessment.
The study was designed to enroll 180 patients with specified FGFR alterations. Of these, ≥88 were required in the selected regimen. […] Responses were assessed by investigators and an independent radiological review committee. Progression-free survival and overall survival were estimated using Kaplan-Meier product limit method. Data from patients who were progression free and alive or with unknown status were censored at last tumor assessment. Efficacy end points were analysed at primary analysis cut-off.

[1] = 6 mg QD, Any FGFR alterations, n=73
[2] = 6 mg QD, FGFR fusions (excluding mutations), 2 responders
[3] = 6 mg QD, FGFR fusions (excluding mutations), n=10
[4] = 6 mg QD, FGFR mutations (excluding fusions), 22 responders
[5] = 6 mg QD, FGFR mutations (excluding fusions), n=59
[6] = 6 mg QD, FGFR mutations and fusions, 3 responders
[7] = 6 mg QD, FGFR mutations and fusions, n=4
[8] = 6 mg QD, Fusion: FGFR2-CASP7/FGFR3-BAIAP2L1, n=1
[9] = 6 mg QD, Mutation and fusion: FGFR3-G370C/FGFR2-BICC1, n=1
[10] = 6 mg QD, Mutation and fusion: FGFR3-G370C/FGFR3-TACC3 V1, n=1
[11] = 6 mg QD, Mutation and fusion: FGFR3-R248C/FGFR3-S249C/FGFR3-TACC3 V1, n=1
[12] = 6 mg QD, Mutation and fusion: FGFR3-R248C/FGFR3-TACC3 V1, n=1
[13] = 6 mg QD, Mutation: FGFR3-G370C/FGFR3-S249C, n=1
[14] = 6 mg QD, Mutation: FGFR3-R248C/FGFR3-Y373C, n=1
[15] = 8 mg QD, Any FGFR alterations, n=87
[16] = 8 mg QD, FGFR fusions (excluding mutations), 4 responders
[17] = 8 mg QD, FGFR fusions (excluding mutations), n=23
[18] = 8 mg QD, FGFR mutations (excluding fusions), 31 responders
[19] = 8 mg QD, FGFR mutations (excluding fusions), n=64
[20] = 8 mg QD, Fusion: FGFR2-CASP7/FGFR3-TACC3 V3, n=1
[21] = 10 mg 7 on/7 off, Any FGFR alterations, n=29
[22] = 10 mg 7 on/7 off, FGFR fusions (excluding mutations), n=2
[23] = 10 mg 7 on/7 off, FGFR mutations (excluding fusions), 5 responders
[24] = 10 mg 7 on/7 off, FGFR mutations (excluding fusions), n=24
[25] = 10 mg 7 on/7 off, FGFR mutations and fusions, 1 responder
[26] = 10 mg 7 on/7 off, FGFR mutations and fusions, n=3
[27] = 10 mg 7 on/7 off, Mutation and fusion: FGFR3-R248C/FGFR3-TACC3 V1, n=1
[28] = 10 mg 7 on/7 off, Mutation and fusion: FGFR3-S249C/FGFR3-BAIAP2L1, n=1
[29] = 10 mg 7 on/7 off, Mutation and fusion: FGFR3-S249C/FGFR3-Y373C/FGFR2-CASP7/FGFR3-BAIAP2L1/FGFR3-TACC3 V1/FGFR3-TACC3 V3, n=1

In the case of `COc1cc(OC)cc(N(CCNC(C)C)c2ccc3ncc(-c4cnn(C)c4)nc3c2)c1` [erdafitinib, N-(3,5-dimethoxy-phenyl)-N′-(1-methylethyl)-N-[3-(1-methyl-1H-pyrazol-4-yl)quinoxalin-6-yl]ethane-1,2-diamine], the “Confirmed complete response (CR)” value [1] is reported as 3 (4.1%), the “Confirmed partial response (PR)” value [1] is reported as 24 (32.9%) and the “Disease control rate (CR + PR + SD)” value [1] is reported as 55 (75.3%). The Inevaluable [1] was 4 (5.5%), the “Progressive disease (PD)” value [1] was 14 (19.2%) and the “6-month progression-free survival rate (95% CI), among responders” value [2] was 0.50 (0.01, 0.91). The “9-month progression-free survival rate (95% CI), among responders” value [2] was 0.50 (0.01, 0.91), the “12-month progression-free survival rate (95% CI), among responders” value [2] was 0.50 (0.01, 0.91) and the “Confirmed complete response (CR)” value [3] was 0%. The “Confirmed partial response (PR)” value [3] was 2 (20.0%), the “Disease control rate (CR + PR + SD)” value [3] was 9 (90.0%) and the Inevaluable [3] was 1 (10.0%). For the same compound, the “Objective response rate (CR + PR)” value [3] was 2 (20.0%), the “Progressive disease (PD)” value [3] was 0% and the “6-month progression-free survival rate (95% CI), among responders” value [4] was 0.41 (0.21, 0.60). The “9-month progression-free survival rate (95% CI), among responders” value [4] was 0.27 (0.11, 0.46), the “12-month progression-free survival rate (95% CI), among responders” value [4] was 0.18 (0.06, 0.36) and the “Confirmed complete response (CR)” value [5] was 2 (3.4%). The “Confirmed partial response (PR)” value [5] was 20 (33.9%), the “Disease control rate (CR + PR + SD)” value [5] was 43 (72.9%) and the Inevaluable [5] was 2 (3.4%). The “Objective response rate (CR + PR)” value [5] was 22 (37.3%), the “Progressive disease (PD)” value [5] was 14 (23.7%) and the “6-month progression-free survival rate (95% CI), among responders” value [6] was 0.67 (0.05, 0.95). For the same compound, the “9-month progression-free survival rate (95% CI), among responders” value [6] was 0.67 (0.05, 0.95), the “12-month progression-free survival rate (95% CI), among responders” value [6] was 0.33 (0.01, 0.77) and the “Confirmed complete response (CR)” value [7] was 1 (25.0%). For the same compound, the “Confirmed partial response (PR)” value [7] was 2 (50.0%), the “Disease control rate (CR + PR + SD)” value [7] was 3 (75.0%) and the Inevaluable [7] was 1 (25.0%). For the same compound, the “Objective response rate (CR + PR)” value [7] was 3 (75.0%), the “Progressive disease (PD)” value [7] was 0% and the “Confirmed complete response (CR)” value [8] was 0%. For the same compound, the “Confirmed partial response (PR)” value [8] was 0%, the “Disease control rate (CR + PR + SD)” value [8] was 1 (100.0%) and the Inevaluable [8] was 0%. The “Objective response rate (CR + PR)” value [8] was 0%, the “Progressive disease (PD)” value [8] was 0% and the “Confirmed complete response (CR)” value [9] was 1 (100.0%). The “Confirmed partial response (PR)” value [9] was 0%, the “Disease control rate (CR + PR + SD)” value [9] was 1 (100.0%) and the Inevaluable [9] was 0%. For the same compound, the “Objective response rate (CR + PR)” value [9] was 1 (100.0%), the “Progressive disease (PD)” value [9] was 0% and the “Confirmed complete response (CR)” value [10] was 0%. The “Confirmed partial response (PR)” value [10] was 1 (100.0%), the “Disease control rate (CR + PR + SD)” value [10] was 1 (100.0%) and the Inevaluable [10] was 0%. For the same compound, the “Objective response rate (CR + PR)” value [10] was 1 (100.0%), the “Progressive disease (PD)” value [10] was 0% and the “Confirmed complete response (CR)” value [11] was 0%. The “Confirmed partial response (PR)” value [11] was 1 (100.0%), the “Disease control rate (CR + PR + SD)” value [11] was 1 (100.0%) and the Inevaluable [11] was 0%. For the same compound, the “Objective response rate (CR + PR)” value [11] was 1 (100.0%), the “Progressive disease (PD)” value [11] was 0% and the “Confirmed complete response (CR)” value [12] was 0%. The “Confirmed partial response (PR)” value [12] was 0%, the “Disease control rate (CR + PR + SD)” value [12] was 0% and the Inevaluable [12] was 1 (100.0%). For the same compound, the “Objective response rate (CR + PR)” value [12] was 0%, the “Progressive disease (PD)” value [12] was 0% and the “Confirmed complete response (CR)” value [13] was 0%. The “Confirmed partial response (PR)” value [13] was 0%, the “Disease control rate (CR + PR + SD)” value [13] was 1 (100.0%) and the Inevaluable [13] was 0%. The “Objective response rate (CR + PR)” value [13] was 0%, the “Progressive disease (PD)” value [13] was 0% and the “Confirmed complete response (CR)” value [14] was 0%. The “Confirmed partial response (PR)” value [14] was 1 (100.0%), the “Disease control rate (CR + PR + SD)” value [14] was 1 (100.0%) and the Inevaluable [14] was 0%. The “Objective response rate (CR + PR)” value [14] was 1 (100.0%), the “Progressive disease (PD)” value [14] was 0% and the “Disease control rate (CR + PR + SD)” value [15] was 69 (79.3%). For the same compound, the Inevaluable [15] was 2 (2.3%), the “Progressive disease (PD)” value [15] was 16 (18.4%) and the “6-month progression-free survival rate (95% CI), among responders” value [16] was 0.50 (0.06, 0.84). The “9-month progression-free survival rate (95% CI), among responders” value [16] was 0.50 (0.06, 0.84), the “Confirmed complete response (CR)” value [17] was 0% and the “Confirmed partial response (PR)” value [17] was 4 (17.4%). For the same compound, the “Disease control rate (CR + PR + SD)” value [17] was 15 (65.2%), the Inevaluable [17] was 1 (4.3%) and the “Progressive disease (PD)” value [17] was 7 (30.4%). For the same compound, the “6-month progression-free survival rate (95% CI), among responders” value [18] was 0.42 (0.24, 0.59), the “9-month progression-free survival rate (95% CI), among responders” value [18] was 0.19 (0.07, 0.37) and the “12-month progression-free survival rate (95% CI), among responders” value [18] was 0.19 (0.07, 0.37). For the same compound, the “Confirmed complete response (CR)” value [19] was 3 (4.7%), the “Confirmed partial response (PR)” value [19] was 28 (43.8%) and the “Disease control rate (CR + PR + SD)” value [19] was 54 (84.4%). For the same compound, the Inevaluable [19] was 1 (1.6%), the “Progressive disease (PD)” value [19] was 9 (14.1%) and the “Confirmed complete response (CR)” value [20] was 0%. For the same compound, the “Confirmed partial response (PR)” value [20] was 0%, the “Disease control rate (CR + PR + SD)” value [20] was 0% and the Inevaluable [20] was 1 (100.0%). For the same compound, the “Objective response rate (CR + PR)” value [20] was 0%, the “Progressive disease (PD)” value [20] was 0% and the “Confirmed complete response (CR)” value [21] was 1 (3.4%). The “Confirmed partial response (PR)” value [21] was 5 (17.2%), the “Disease control rate (CR + PR + SD)” value [21] was 23 (79.3%) and the Inevaluable [21] was 2 (6.9%). The “Progressive disease (PD)” value [21] was 4 (13.8%), the “Confirmed complete response (CR)” value [22] was 0% and the “Confirmed partial response (PR)” value [22] was 0%. For the same compound, the “Disease control rate (CR + PR + SD)” value [22] was 1 (50.0%), the Inevaluable [22] was 0% and the “Objective response rate (CR + PR)” value [22] was 0%. For the same compound, the “Progressive disease (PD)” value [22] was 1 (50.0%), the “6-month progression-free survival rate (95% CI), among responders” value [23] was 0.80 (0.20, 0.97) and the “9-month progression-free survival rate (95% CI), among responders” value [23] was 0.80 (0.20, 0.97). For the same compound, the “12-month progression-free survival rate (95% CI), among responders” value [23] was 0.60 (0.13, 0.88), the “Confirmed complete response (CR)” value [24] was 1 (4.2%) and the “Confirmed partial response (PR)” value [24] was 4 (16.7%). The “Disease control rate (CR + PR + SD)” value [24] was 20 (83.3%), the Inevaluable [24] was 2 (8.3%) and the “Objective response rate (CR + PR)” value [24] was 5 (20.8%). The “Progressive disease (PD)” value [24] was 2 (8.3%), the “6-month progression-free survival rate (95% CI), among responders” value [25] was 0 (NE, NE) and the “9-month progression-free survival rate (95% CI), among responders” value [25] was 0 (NE, NE). For the same compound, the “12-month progression-free survival rate (95% CI), among responders” value [25] was 0 (NE, NE), the “Confirmed complete response (CR)” value [26] was 0% and the “Confirmed partial response (PR)” value [26] was 1 (33.3%). The “Disease control rate (CR + PR + SD)” value [26] was 2 (66.7%), the Inevaluable [26] was 0% and the “Objective response rate (CR + PR)” value [26] was 1 (33.3%). For the same compound, the “Progressive disease (PD)” value [26] was 1 (33.3%), the “Confirmed complete response (CR)” value [27] was 0% and the “Confirmed partial response (PR)” value [27] was 1 (100.0%). The “Disease control rate (CR + PR + SD)” value [27] was 1 (100.0%), the Inevaluable [27] was 0% and the “Objective response rate (CR + PR)” value [27] was 1 (100.0%). The “Progressive disease (PD)” value [27] was 0%, the “Confirmed complete response (CR)” value [28] was 0% and the “Confirmed partial response (PR)” value [28] was 0%. The “Disease control rate (CR + PR + SD)” value [28] was 0%, the Inevaluable [28] was 0% and the “Objective response rate (CR + PR)” value [28] was 0%. The “Progressive disease (PD)” value [28] was 1 (100.0%), the “Confirmed complete response (CR)” value [29] was 0% and the “Confirmed partial response (PR)” value [29] was 0%.
